Columns and labels:
[1] = test system: MDAH-2774 human ovarian cancer cells; assay: Nude mice xenograft model, tumor growth; format: in vivo; conditions: low dose (0.069 μM/g) and high dose (0.69 μM/g) i.p. every other day, 7-week treatment
Experimental: (§1) MDAH-2774 human ovarian cancer cells of 2×10^6 (or LNCap prostate cancer cells of 1×10^6) in 0.1 ml PBS were injected subcutaneously at the right flank of 6-week-old female nude mice (Foxnlun/Foxulun). When tumors became visible (approximately 3×3 mm in size), the mice were randomly grouped and treated intraperitoneally with protoapigenone or vehicle every other day. […] Tumor size and body weight were measured twice a week using calipers, and their tumor volumes were calculated according to a standard formula: width^2×length/2. After treatment with protoapigenone for 5 weeks, the mice xenografted with LNCap cells were sacrificed by deep anesthesia, and the blood sampling by cardiac aspiration was done immediately after anesthesia. Complete blood count of the nude mice blood was determined by Sysmex XE-2100 (TOA Medical Electronics, Kobe, Japan), and the plasma blood urea nitrogen (BUN), creatine (Cr), asparatate aminotransferase (AST), and alanine aminotransferase (ALT) levels were determined by Beckman LX20 (Beckman-Coulter, U.S.A.)

MDAH-2774 [2] = assay: XTT cell proliferation assay (cytotoxicity); format: cell-based, human; conditions: Homo sapiens
Experimental: (§2) Cells were seeded at 7×10^3 per well in 96-well culture plates before treatment with different concentrations of protoapigenone for 12, 24 and/or 48 hours. Next, the cytotoxicity of protoapigenone was determined using XTT cell proliferation assay (Sigma, St. Louis, Mo.). The absorbance of wavelength at 490 nm (OD490) and 650 nm (OD650) were determined respectively by enzyme-linked immunosorbent assay (ELISA) reader, and 50% of inhibitory concentration (IC50) was calculated by the value of OD490-OD650. In addition, in order to evaluate the long-term effect, the cells were treated with different concentration of protoapigenone for 3 hours, then were incubated with fresh medium for 14 days so as to form colonies. Finally, the cells were stained with crystal violet and were observed under the microscope.

SKOV3 cells = assay: Cell survival assay (trypan blue) at cell cycle phases; format: cell-based, human; conditions: 4 hours
Experimental: SKOV3 cells at various cell cycle phases were incubated in the 6-cm Petri dishes and treated with protoapigenone at different dosages ([…]). Subsequently, the cells were harvested and mixed with trypan blue at a ratio of 1:1. The stained apoptotic cells were observed under the microscope.

MDAH-2774 [3] = assay: Clonogenic assay (colony formation); format: cell-based, human; conditions: 3 hours treatment, 14 days in fresh medium
Experimental: as §2

[4] = Body weight, complete blood count and biochemical profile of LNCap-xenografted nude mice; format: in vivo; conditions: for BUN / Creatine / Got (glutamic-oxaloacetic transaminase) / Gpt (glutamic-pyruvic transaminase) / MCV (mean corpuscular volume) / RBC / WBC / Body weight: LNCap xenograft
Experimental: as §1

RT4 = assay: XTT cell proliferation assay (growth inhibition); format: cell-based, human
Experimental: as §2

Hep 3B = assay: XTT cell proliferation assay (growth inhibition); format: cell-based, human
Experimental: as §2

[5] = test system: LNCap prostate cancer cells; assay: Nude mice xenograft model, tumor volume; format: in vivo; conditions: 5 weeks
Experimental: as §1

[6] = Body weight, complete blood count and biochemical profile of MDAH-2774-xenografted nude mice; format: in vivo; conditions: for Creatine / Got (glutamic-oxaloacetic transaminase) / Gpt (glutamic-pyruvic transaminase) / HCT (hematocrit) / MCV (mean corpuscular volume) / PLT / RBC / WBC / Body weight: MDAH-2774 xenograft
LNCap cells [7] = assay: Cell cycle analysis (PI flow cytometry); format: cell-based, human; conditions: 6 hours and 12 hours
Experimental: The ovarian cancer cells and the prostate cancer cells respectively were treated with protoapigenone at different concentrations (0, 2.5, 5 and 10 μM) for 24 hours and 6 hours (or 12 hours). These cells were harvested by trypsin and fixed with 70% ethanol for 1 hour, washed with phosphate buffered saline (PBS) twice, and resuspended in propidium iodide (PI)/RNase A solution for 30 minutes. In accordance with the mechanism of DNA stained with propidium iodide, the cell cycle and sub-G1 distribution were detected by the FACScan flow cytometry (Becton Dickinson, San Jose, Calif.), and data analysis was done with CellQuest software (BD Bioscience).

MDAH-2774 [8] = assay: Annexin V apoptosis assay; format: cell-based, human; conditions: MDAH-2774, 10 μM, 3 hours
Experimental: (§3) The theory of this assay is to detect early apoptotic cells during the apoptotic progression. The ovarian cancer cells and the prostate cancer cells respectively were incubated with protoapigenone at 10 μM for 3 hours on chamber slides, washed with cold PBS twice and stained with a binding buffer containing annexin V-fluorescein isothiocyanate (FITC) (1 mg/ml; Strong Biotech, Taipei, Taiwan) and 4,6-diamidino-2-phenylinodole (Sigma-Aldrich) at 25° C. for 15 minutes. The stained cells were washed with PBS twice and observed under the fluorescent microscope.

SKOV3 = assay: Annexin V apoptosis assay; format: cell-based, human; conditions: SKOV3, 10 μM, 3 hours
Experimental: as §3

LNCap cells [9] = assay: Annexin V apoptosis assay; format: cell-based, human; conditions: 10 μM, 3 hours
Experimental: as §3

With `O=C1C=CC(O)(c2cc(=O)c3c(O)cc(O)cc3o2)C=C1` [protoapigenone] the “tumor growth of MDAH-2774 cells vs PBS control” value [1] was “significantly suppressed”, the inhibition at 1 µM (MDAH-2774 [2]; MDAH-2774, 1 μM protoapigenone, read-out: inhibition of cell growth) was 25% and the inhibition at 2.5 µM (MDAH-2774 [2]; MDAH-2774, 2.5 μM protoapigenone, read-out: inhibition of cell growth) was 53.4%. For the same compound, the IC50 (MDAH-2774 [2]; ovarian cancer cell line MDAH-2774, means ± SD of three independent experiments) was 0.69 ± 0.92 µM, the “decrease in number of SKOV3 cells proliferated at G2 phase” value (SKOV3 cells; 5 μM) was 20.3% and the “decrease in number of SKOV3 cells proliferated at M phase” value (SKOV3 cells; 5 μM) was 44.8%. The “decrease in number of SKOV3 cells proliferated at S phase” value (SKOV3 cells; 5 μM) was 23.5%, the “decrease in number of SKOV3 cells proliferated at G2 phase” value (SKOV3 cells; 10 μM) was 34.7% and the “decrease in number of SKOV3 cells proliferated at M phase” value (SKOV3 cells; 10 μM) was 70.5%. For the same compound, the “decrease in number of SKOV3 cells proliferated at S phase” value (SKOV3 cells; 10 μM) was 45.4%, the “ratio of colony formation” value (MDAH-2774 [3]) was “decrease along with the increased protoapigenone concentrations” and the BUN ([4]; high dose, 5 weeks) was 24.8 ± 9.0 mg/dL. For the same compound, the Creatine ([4]; high dose, 5 weeks) was 0.48 ± 0.10 mg/dL, the “Got (glutamic-oxaloacetic transaminase)” value ([4]; high dose, 5 weeks) was 630.7 ± 165.5 U/L and the “Gpt (glutamic-pyruvic transaminase)” value ([4]; high dose, 5 weeks) was 137.3 ± 55.8 U/L. For the same compound, the “MCV (mean corpuscular volume)” value ([4]; high dose, 5 weeks) was 47.7 ± 0.9 fL, the RBC ([4]; high dose, 5 weeks) was 7.3 ± 0.7 10^6/µL and the WBC ([4]; high dose, 5 weeks) was 2.7 ± 1.0 10 × 3/μl. The Body weight ([4]; high dose, after treatment (5 weeks)) was 13.5 ± 0.6 g, the Body weight ([4]; high dose, before treatment) was 11.5 ± 0.8 g and the BUN ([4]; low dose, 5 weeks) was 23.9 ± 3.2 mg/dL. For the same compound, the Creatine ([4]; low dose, 5 weeks) was 0.43 ± 0.05 mg/dL, the “Got (glutamic-oxaloacetic transaminase)” value ([4]; low dose, 5 weeks) was 520.5 ± 169.9 U/L and the “Gpt (glutamic-pyruvic transaminase)” value ([4]; low dose, 5 weeks) was 130.0 ± 119.9 U/L. The “MCV (mean corpuscular volume)” value ([4]; low dose, 5 weeks) was 46.8 ± 0.8 fL, the RBC ([4]; low dose, 5 weeks) was 7.3 ± 0.6 10^6/µL and the WBC ([4]; low dose, 5 weeks) was 2.3 ± 0.7 10 × 3/μl. For the same compound, the Body weight ([4]; low dose, after treatment (5 weeks)) was 13.6 ± 1.2 g, the Body weight ([4]; low dose, before treatment) was 11.8 ± 0.4 g and the “body weight, control vs protoapigenone-treated group” value ([4]; LNCap-xenografted nude mice, 5 weeks) was “no significant difference”. The “impairment of hematopoiesis, liver function, or renal function” value ([4]; LNCap-xenografted nude mice, intraperitoneal injection, 5 weeks) was “No significant impairment”, the “survival rate of RT4 cells” value (RT4; 4 μM and 8 μM, 24 and 48 hours) was “decreased” and the IC50 (RT4; RT-4, human urinary bladder transitional cell papilloma RT4) was 5.11 ± 3.25 µM. The “survival rate of RT4 cells” value (RT4; low concentrations (0.5, 1 and 2 μM)) was “over 100%”, the growth inhibition (Hep 3B; Hep 3B, various concentrations) was “dose-dependent and time-dependent” and the IC50 (Hep 3B; Hep3B, human hepatocellular carcinoma Hep 3B) was 1.86 µM. The average tumor size ([5]; high dose (3.7 μM/g body weight i.p. every other day)) was 1153.0±218.7 mm^3, the average tumor size ([5]; low dose (0.37 μM/g body weight i.p. every other day)) was 1876.9±428.6 mm^3 and the “impairment of hematopoiesis, liver function, or renal function” value ([6]; MDAH-2774-xenografted nude mice, intraperitoneal injection, 7 weeks) was “no significant impairment”. The Creatine ([6]; high dose, 7 weeks) was 0.5 ± 0.0 mg/dL, the “Got (glutamic-oxaloacetic transaminase)” value ([6]; high dose, 7 weeks) was 148.2 ± 59.3 U/L and the “Gpt (glutamic-pyruvic transaminase)” value ([6]; high dose, 7 weeks) was 52.0 ± 17.6 U/L. The “HCT (hematocrit)” value ([6]; high dose, 7 weeks) was 46.1 ± 1.8%, the “MCV (mean corpuscular volume)” value ([6]; high dose, 7 weeks) was 50.9 ± 0.9 fL and the PLT ([6]; high dose, 7 weeks) was 916.3 ± 100.5 10 × 3/μl. For the same compound, the RBC ([6]; high dose, 7 weeks) was 9.1 ± 0.3 10^6/µL, the WBC ([6]; high dose, 7 weeks) was 2.0 ± 0.9 10 × 3/μl and the Body weight ([6]; high dose, after treatment (7 weeks)) was 19.8 ± 1.1 g. The Body weight ([6]; high dose, before treatment) was 19.6 ± 0.8 g, the Creatine ([6]; low dose, 7 weeks) was 0.5 ± 0.0 mg/dL and the “Got (glutamic-oxaloacetic transaminase)” value ([6]; low dose, 7 weeks) was 119.5 ± 45.5 U/L. For the same compound, the “Gpt (glutamic-pyruvic transaminase)” value ([6]; low dose, 7 weeks) was 46.3 ± 16.7 U/L, the “HCT (hematocrit)” value ([6]; low dose, 7 weeks) was 43.5 ± 3.6% and the “MCV (mean corpuscular volume)” value ([6]; low dose, 7 weeks) was 56.2 ± 8.9 fL. For the same compound, the PLT ([6]; low dose, 7 weeks) was 1094.5 ± 124.9 10 × 3/μl, the RBC ([6]; low dose, 7 weeks) was 7.8 ± 1.4 10^6/µL and the WBC ([6]; low dose, 7 weeks) was 2.6 ± 1.2 10 × 3/μl. For the same compound, the Body weight ([6]; low dose, after treatment (7 weeks)) was 19.4 ± 0.1 g, the Body weight ([6]; low dose, before treatment) was 19.6 ± 0.6 g and the cell cycle distribution (LNCap cells [7]) was “arrests the LNCap cells at S and G2/M phases”. For the same compound, the “cell apoptosis (annexin V-FITC)” value (MDAH-2774 [8]) was 24.5%, the “cell apoptosis (annexin V-FITC)” value (SKOV3) was 34.2% and the “ratio of annexin V-FITC positive cells” value (LNCap cells [9]) was 24.2±1.3%.

From patent US20100062078A1, “PHARMACEUTICAL COMPOSITION FOR TREATING CANCER AND THE SIGNALING PATHWAY THEREOF” (priority 2008, published 2010)
